Results on 17 molecules are retold here after PubChem BioAssay AID292 (DTP/NCI, 2004).

The subject of this experiment is B6C3F1 mice, ip Sarcoma M5076, median survival T/C. Briefly: NCI In Vivo Anticancer Drug Screen. Data for tumor model Sarcoma M5076 (intraperitoneal) in B6C3F1 mice. The note with it: endpoint: median survival time, schedule: Q04DX004 (ip), higher = longer survival. A digest of the protocol: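 Mice carrying the transplanted tumour received compound treatment. Survival was recorded, and each value is the treated-group measurement divided by that of the vehicle-dosed control group.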

[1] abbreviates: dose: 50.0 mg/kg/injection, vehicle: saline.
Setting [2] is: dose: 100.0 mg/kg/injection, vehicle: saline.
Setting [3] is: dose: 200.0 mg/kg/injection, vehicle: saline.
Where [4] appears, read: dose: 400.0 mg/kg/injection, vehicle: saline.
Where [5] appears, read: dose: 50.0 mg/kg/injection, vehicle: saline with Tween-80.
[6] abbreviates: dose: 100.0 mg/kg/injection, vehicle: saline with Tween-80.
Setting [7] is: dose: 200.0 mg/kg/injection, vehicle: saline with Tween-80.

Several values for one entry are separate records, joined by “and”; a condition that tells them apart may be missing. Equal entries are not always repeated. Toxic doses and inconclusive results are not listed.

On to `O=C1c2c(O)cccc2-c2nn(CCNCCO)c3ccc(NCCNCCO)c1c23`, for which the T/C is 169 % of control (dose: 2.75 mg/kg/injection, vehicle: water); 233 % of control and 263 % of control (dose: 5.5 mg/kg/injection, vehicle: water); 243 % of control (dose: 11.0 mg/kg/injection, vehicle: water); 109 % of control (dose: 22.0 mg/kg/injection, vehicle: water).
On to `C=CCc1cn(C2CC(O)C(CO)O2)c(=O)[nH]c1=O` (centres undefined), for which the T/C under setting [1] is 99 % of control, the T/C under setting [2] was 93 % of control, the T/C under setting [3] was 93 % of control and the T/C under setting [4] is 101 % of control.
On to `O=[N+]([O-])c1ccc(C=C2C=CN(CCO)C=C2)cc1`, for which the T/C was 115 % of control (dose: 25.0 mg/kg/injection, vehicle: saline with Tween-80); 115 % of control under setting [5]; 106 % of control under setting [6].
As to `COc1cc(C(C)c2cc3c(cc2OCCO)OCO3)cc(OC)c1OC` (centres undefined), the T/C under setting [6] was 108 % of control and the T/C under setting [7] was 104 % of control.
Turning to `Nc1ccn([C@@H](C=O)C[C@@H](C=O)CO)c(=O)n1`, the T/C was 99 % of control (dose: 25.0 mg/kg/injection, vehicle: saline); 99 % of control under setting [1]; 103 % of control under setting [2]; 108 % of control under setting [3]; 118 % of control under setting [4].
In the case of `Nc1nc2c(ncn2C2OC(CO)C(O)C2O)c(=O)[nH]1` (centres undefined), the T/C is, setting by setting: (dose: 75.0 mg/kg/injection, vehicle: saline with Tween-80) 107 % of control; (dose: 150.0 mg/kg/injection, vehicle: saline with Tween-80) 114 % of control; (dose: 300.0 mg/kg/injection, vehicle: saline with Tween-80) 114 % of control; (dose: 600.0 mg/kg/injection, vehicle: saline with Tween-80) 114 % of control; (dose: 1200.0 mg/kg/injection, vehicle: saline with Tween-80) 109 % of control.
For the molecule `COc1cc2c(c(OC)c1OC)-c1ccc(SC)c(=O)cc1[C@@H](NC(C)=O)CC2`, the T/C (dose: 0.03 mg/kg/injection, vehicle: Klucel (hydroxypropylcellulose) (HPC)) is 102 % of control; the T/C (dose: 0.05 mg/kg/injection, vehicle: Klucel (hydroxypropylcellulose) (HPC)) was 106 % of control; the T/C (dose: 0.1 mg/kg/injection, vehicle: Klucel (hydroxypropylcellulose) (HPC)) is 104 % of control and 113 % of control; the T/C (dose: 0.14 mg/kg/injection, vehicle: Klucel (hydroxypropylcellulose) (HPC)) is 114 % of control; the T/C (dose: 0.19 mg/kg/injection, vehicle: Klucel (hydroxypropylcellulose) (HPC)) was 112 % of control; the T/C (dose: 0.23 mg/kg/injection, vehicle: Klucel (hydroxypropylcellulose) (HPC)) is 116 % of control. Further, the T/C (dose: 0.45 mg/kg/injection, vehicle: Klucel (hydroxypropylcellulose) (HPC)) is 103 % of control.
Consider `COC1C(O)CC(OC2CC(Oc3cc4cc5c(c(O)c4c(O)c3C)C(=O)[C@@H](OC3CC(OC4CC(OC6CC(C)(O)C(OC(C)=O)C(C)O6)C(O)C(C)O4)C(O)C(C)O3)[C@H]([C@H](OC)C(=O)[C@@H](O)[C@@H](C)O)C5)OC(C)C2OC(C)=O)OC1C` (some centres undefined), for which the T/C is, setting by setting: (dose: 37.5 micrograms/kg/injection, vehicle: water) 110 % of control; (dose: 75.0 micrograms/kg/injection, vehicle: water) 111 % of control.
As for `O=C1CSC(c2cccs2)N1c1nncs1` (centres undefined), the T/C was 102 % of control and 111 % of control (dose: 50.0 mg/kg/injection, vehicle: Klucel (hydroxypropylcellulose) (HPC)); 98 % of control and 106 % of control (dose: 100.0 mg/kg/injection, vehicle: Klucel (hydroxypropylcellulose) (HPC)); 98 % of control and 106 % of control (dose: 200.0 mg/kg/injection, vehicle: Klucel (hydroxypropylcellulose) (HPC)); 111 % of control (dose: 400.0 mg/kg/injection, vehicle: Klucel (hydroxypropylcellulose) (HPC)); 122 % of control (dose: 800.0 mg/kg/injection, vehicle: Klucel (hydroxypropylcellulose) (HPC)).
For the molecule `CO[C@@]12[C@@H]3N[C@@H]3CN1C1=C(C(=O)C(N3CCCC3)=C(C)C1=O)[C@@H]2COC(N)=O`, the T/C by setting is: (dose: 6.25 mg/kg/injection, vehicle: saline with Tween-80) 269 % of control; (dose: 12.5 mg/kg/injection, vehicle: saline with Tween-80) 183 % of control.
For `CC[C@](C)(O)C(=O)O[C@H]1C(=O)O[C@@H]2C[C@H]3C(C)=CC(=O)[C@@H](O)[C@]3(C)[C@H]3[C@@]4(O)OC[C@]32[C@@H]1[C@@H](C)[C@H]4O`, the T/C is 102 % of control (dose: 0.03 mg/kg/injection, vehicle: saline); 117 % of control (dose: 0.06 mg/kg/injection, vehicle: saline); 100 % of control (dose: 0.25 mg/kg/injection, vehicle: saline).
On to `CCNC(=O)OCc1cnc(C)c(O)c1COC(=O)NCC`, for which the T/C is 97 % of control under setting [1], 107 % of control under setting [2], 108 % of control under setting [3] and 102 % of control under setting [4].
Regarding `O=C(O)c1nn(-c2ccccc2-c2n[nH]c(=O)[nH]c2=O)c(=O)[nH]c1=O`, the T/C under setting [5] was 101 % of control, the T/C under setting [6] was 100 % of control and the T/C under setting [7] is 92 % of control.
Take `O=c1cc(CCl)[nH]nc1CCl`: the T/C is 111 % of control (dose: 3.0 mg/kg/injection, vehicle: saline with Tween-80); 110 % of control (dose: 6.0 mg/kg/injection, vehicle: saline with Tween-80); 112 % of control (dose: 12.0 mg/kg/injection, vehicle: saline with Tween-80); 120 % of control (dose: 24.0 mg/kg/injection, vehicle: saline with Tween-80); 114 % of control (dose: 48.0 mg/kg/injection, vehicle: saline with Tween-80).
As for `Nc1ccn(C2CC3[O][Sn]([c]4ccccc4)([c]4ccccc4)[O]CC3O2)c(=O)n1` (centres undefined), the T/C runs as follows: (dose: 25.0 mg/kg/injection, vehicle: distilled water + Tween-80) 100 % of control; (dose: 50.0 mg/kg/injection, vehicle: distilled water + Tween-80) 100 % of control; (dose: 100.0 mg/kg/injection, vehicle: distilled water + Tween-80) 105 % of control; (dose: 200.0 mg/kg/injection, vehicle: distilled water + Tween-80) 100 % of control; (dose: 400.0 mg/kg/injection, vehicle: distilled water + Tween-80) 95 % of control.
As to `N#CC1C(=O)NC(=S)NC1c1ccc(C2CC(=O)NC(=S)N2)cc1` (centres undefined), the T/C is, setting by setting: under setting [5], 93 % of control; under setting [6], 106 % of control; under setting [7], 94 % of control; (dose: 400.0 mg/kg/injection, vehicle: saline with Tween-80) 90 % of control; (dose: 800.0 mg/kg/injection, vehicle: saline with Tween-80) 92 % of control.
As for `C[n+]1c2cc(N)ccc2cc2ccc(N)cc21`, the T/C (dose: 1.5 mg/kg/injection, vehicle: saline) was 101 % of control; the T/C (dose: 3.0 mg/kg/injection, vehicle: saline) was 94 % of control; the T/C (dose: 6.0 mg/kg/injection, vehicle: saline) is 106 % of control and 118 % of control and 120 % of control; the T/C (dose: 12.0 mg/kg/injection, vehicle: saline) is 116 % of control and 123 % of control; the T/C (dose: 24.0 mg/kg/injection, vehicle: saline) is 112 % of control.
